Measured values reported in publication PMC12165043, “Neophytadiene, a Plant Specialized Metabolite, Mediates the Virus‐Vector‐Plant Tripartite Interactions” (Advanced Science, 2025).
Where “and” joins values, the source holds several entries; their conditions need not be identical. Equal values may be shown once.

Experiments:
BtOBP2 [1] = molecular target: T1, BtOBP2 (Bemisia tabaci, UniProt A0A097BTY7); assay: Fluorescence competitive binding assay (displacement of 1-NPN from BtOBP2); settings: mean ± SEM; for IC50: BtOBP2 2 µM, ligand 2 to 20 µM, read-out: IC50, ligand concentration displacing 50% of the fluorescence intensity of the BtOBP2/1-NPN complex; for Ki: Ki = [IC50]/(1 + [1-NPN]/K1-NPN), read-out: Ki, dissociation constant
T1 sequence (A0A097BTY7 23-247): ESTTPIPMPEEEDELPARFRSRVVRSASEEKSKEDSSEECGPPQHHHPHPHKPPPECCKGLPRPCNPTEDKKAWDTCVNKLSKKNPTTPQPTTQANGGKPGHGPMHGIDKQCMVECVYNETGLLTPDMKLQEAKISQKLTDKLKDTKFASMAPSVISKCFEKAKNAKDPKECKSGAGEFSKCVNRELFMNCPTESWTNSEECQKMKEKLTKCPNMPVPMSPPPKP
Text: (§1) The specific primers for BtOBP2 were designed using Primer 5 software to amplify the coding sequence according to the Phanta Max Super‐Fidelity DNA Polymerase protocol. Target DNA fragments were purified and ligated into the pEASY‐Blunt cloning vector, and positive colonies were identified by PCR and sequenced. The cloned plasmid was ligated into the pET28a vector (Invitrogen, Waltham USA) following digestion with BamHI and SalI. The resulting construct was transformed into Rosetta (DE3) Escherichia coli competent cells. When the OD600 of the recombinant BtOBP2 reached 0.6 to 0.8, induction was initiated by adding isopropyl‐β‐D‐1‐thiogalactopyranoside (IPTG) (1 mM) at 16 °C for 16 h, followed by purification using the Ni‐NTA purification system.^[ [59] ^] The target protein was verified by 10% SDS‐PAGE, and its concentration was determined with a BCA protein assay kit. The recombinant purified protein was stored at −80 °C until use. The target protein was subjected to Coomassie blue staining and western blot validation through 10% SDS‐PAGE using anti His‐Tag antibody, and its concentration was determined using a BCA protein assay kit. The purified recombinant protein was stored at −80 °C.
The binding affinity of BtOBP2 to the fluorescent probe N‐phenyl‐1‐naphthyl‐amine (1‐NPN1) was determined using a FL7000 fluorescence spectrophotometer (Hitachi, Tokyo Japan). Ligands and 1‐NPN were dissolved in HPLC‐grade methanol to a concentration of 1 mM, and then titrated with BtOBP2 (2 µM) to final concentrations ranging from 2 to 20 µM.^[ [60] ^] The optimal excitation and emission wavelengths of the recombinant protein BtOBP2 were determined, and the 1‐NPN/BtOBP2 mixture was excited at 220 nm with emission spectra recorded from 300 to 500 nm. The binding constants (Kd) of BtOBP2 to 1‐NPN were calculated by Scatchard analysis using Prism 5 software. The IC50 represents the concentration at which 50% of the probe was displaced by the ligand. The Ki values were calculated according to the following equation: Ki = [IC50]/(1 + [1‐NPN]/K1‐NPN), where [1‐NPN] is the free concentration of 1‐NPN, and K1‐NPN is the Kd of the 1‐NPN/BtOBP2 complex.^[ [61] ^]

[2] = tested on: Bemisia tabaci whiteflies; assay: Y-tube olfactory choice assay, volatile standard versus solvent control; type: in vivo; settings: for Whitefly preference for plant volatiles versus control (solvent only): number of whiteflies in the volatile arm: Fig 1F raw data, individual replicates (n = 9), 100 whiteflies released, counted for 20 min; for impact of volatile on whitefly preference: Y-tube, volatile standard versus solvent control, n = 9, result in words
Method: Y‐tube preference assays were conducted as per Shi et al.^[ [51] ^] with an air flow of 100 mL min^−1. A volatile standard (Sigma Aldrich, USA) and control (solvent) were placed in glass containers at either end of the Y‐tube and 100 whiteflies were released at the Y‐tube base. The number of whiteflies moving more than 5 cm into the Y‐tube arm and remaining there for at least 15 s was counted for 20 min. There were nine replicates per volatile for each of the eight volatile compounds.

[3] = tested on: Bemisia tabaci whiteflies; assay: Whole-plant preference test, OELhca4 tomato plants sprayed with neophytadiene or water; type: in vivo
Method: Tests were conducted as per Shi et al.^[ [49] ^] with slight modifications. ToCV‐infected or control (mock‐inoculated) tomato plants were used for preference tests in screened cages. A second set of preference tests was also conducted using OELhca4 (Lhca4 overexpressed) tomato plants sprayed either with neophytadiene (3 µg g^−1 in water) or water only (control). Each cage contained two plants placed 40 cm apart. Under dim light, about 100 whiteflies that had been starved for 2 h were released above the center of the two plants and the whiteflies on each plant counted after 48 h. Each of the two preference tests (ToCV‐infected versus uninfected plants; OELhca4 plants sprayed with either neophytadiene or water) was replicated nine times.

BtOBP1-8 genes = assay: Transcriptional response of BtOBP1-8 to neophytadiene (qRT-PCR); type: in vivo, Bemisia tabaci
Method: RNA was extracted using trizol reagent (Invitrogen, Waltham USA) and dissolved in double‐deionized water; cDNA was synthesized from total RNA (1 µg) using HiScript 1st Strand cDNA Synthesis kit (Vazyme, Nanjing China). Real‐time qPCR was conducted using the MonAmp SYBR Green qPCR Mix (Thermofisher, Waltham USA). Actin and UBI were selected as the housekeeping genes (Table S1, Supporting Information). Each experiment was repeated at least three times and relative gene expression levels calculated for analysis using the 2^−∆∆Ct method.
To investigate the expression profiles of BtOBP1‐8 genes in B. tabaci under neophytadiene treatment, the following experiment was performed. Tomato plants with an identical growth cycle were selected as the treatment group (sprayed with 3 µg g^−1 neophytadiene) and the control group (treated with water only). The treated plants were then placed in a 10 L hermetic container. Once the volatilization reached equilibrium, 500 pairs of adults were introduced into the closed container and fumigated under airtight conditions. Subsequently, the whiteflies were sampled at distinct time points (0, 24, 48, 72, 96 h) respectively for the determination of expression levels.

whiteflies = tested on: whiteflies; design: method as in PMID 31842757; settings: ref [18]; cited from earlier work
[4] = tested on: Bemisia tabaci whiteflies; assay: Whitefly preference for neophytadiene after RNA interference (dsGFP, dsBtOBP2, dsOBP3); settings: for preference (whiteflies choosing Neophytadiene): Neophytadiene versus CK, single replicates; for preference (whiteflies choosing Neophytadiene) / preference (whiteflies choosing Neophytadiene), mean: Fig 7D; for preference (whiteflies choosing Neophytadiene), mean: unlabelled last row = mean of the 9 replicates
BtOBP2 [5] = molecular target: T1, BtOBP2; assay: Fluorescence binding of the probe 1-NPN to recombinant BtOBP2; settings: recombinant BtOBP2 2 µM, Scatchard analysis; read-out: binding constant (Kd) of 1-NPN to BtOBP2
Text: as §1, with “When the OD600 of the recombinant BtOBP2 reached 0.6 to 0.8, induction was initiated by adding isopropyl‐β‐D‐1‐thiogalactopyranoside (IPTG) (1 mM) at 16 °C for 16 h, followed by purification using the Ni‐NTA purification system.^[ [59] ^]” left out, “The recombinant purified protein was stored at −80 °C until use.” left out, “The purified recombinant protein was stored at −80 °C.” left out
The binding affinity of BtOBP2 to the fluorescent probe N‐phenyl‐1‐naphthyl‐amine (1‐NPN1) was determined using a FL7000 fluorescence spectrophotometer (Hitachi, Tokyo Japan). […] The optimal excitation and emission wavelengths of the recombinant protein BtOBP2 were determined, and the 1‐NPN/BtOBP2 mixture was excited at 220 nm with emission spectra recorded from 300 to 500 nm. The binding constants (Kd) of BtOBP2 to 1‐NPN were calculated by Scatchard analysis using Prism 5 software. […]

Trialeurode vaporariorum = tested on: Trialeurode vaporariorum; design: method as in PMID 35244166; settings: ref [47]; cited from earlier work
TYLCV = tested on: TYLCV; design: method as in PMID 36086899; settings: ref [48]; cited from earlier work

C=CC(=C)CCCC(C)CCCC(C)CCCC(C)C (stereo not shown) [Neophytadiene]
IC50 (BtOBP2 [1]): 7.95 ± 0.45 µM
Whitefly preference for plant volatiles versus control (solvent only): number of whiteflies in the volatile arm [2]: 86 and 89 and 65 and 80 and 52 and 100 and 48
impact of volatile on whitefly preference [2]: attracted B. tabaci
preference (whiteflies on plant) ([3]; OELhca4+Neophytadiene versus OELhca4, Fig 5J, single replicates): 80 and 70 and 78 and 72 and 60 and 66 and 76 and 73
Whitefly preference for neophytadiene-sprayed versus water-sprayed OELhca4 plants ([3]; neophytadiene 3 µg g^−1 in water, whiteflies counted after 48 h, n = 9): attracted more whiteflies
OBP1 relative expression (BtOBP1-8 genes; 24h, Fig 7A): 1.5096 and 1.0333 and 1.7792
OBP2 relative expression (BtOBP1-8 genes; 24h, Fig 7A): 2.314 and 1.938 and 1.255
OBP3 relative expression (BtOBP1-8 genes; 24h, Fig 7A): 2.295 and 2.274 and 2.135
OBP4 relative expression (BtOBP1-8 genes; 24h, Fig 7A): 1.915 and 1.067 and 1.378
OBP5 relative expression (BtOBP1-8 genes; 24h, Fig 7A): 0.9141 and 1.109 and 1.357
OBP7 relative expression (BtOBP1-8 genes; 24h, Fig 7A): 0.4368 and 0.5508 and 0.2972
OBP1 relative expression (BtOBP1-8 genes; 48h, Fig 7A): 0.9445 and 0.6245 and 1.003
OBP2 relative expression (BtOBP1-8 genes; 48h, Fig 7A): 3.877 and 2.855 and 4.158
OBP3 relative expression (BtOBP1-8 genes; 48h, Fig 7A): 2.98 and 1.807 and 1.705
OBP4 relative expression (BtOBP1-8 genes; 48h, Fig 7A): 1.105 and 0.8073 and 0.7508
OBP7 relative expression (BtOBP1-8 genes; 48h, Fig 7A): 0.7647 and 0.5685 and 0.6675
OBP4 relative expression (BtOBP1-8 genes; 72h, Fig 7A): 0.7926 and 1.238 and 0.8444
OBP6 relative expression (BtOBP1-8 genes; 72h, Fig 7A): 0.6207 and 0.9359 and 1.164
OBP3 relative expression (BtOBP1-8 genes; 96h, Fig 7A): 2.791 and 2.514 and 4.498
OBP4 relative expression (BtOBP1-8 genes; 96h, Fig 7A): 1.221 and 0.8392 and 1.362
OBP6 relative expression (BtOBP1-8 genes; 96h, Fig 7A): 0.4452 and 0.8016 and 0.4814
OBP7 relative expression (BtOBP1-8 genes; 96h, Fig 7A): 0.7369 and 0.9206 and 0.9224
OBP8 relative expression (BtOBP1-8 genes; 96h, Fig 7A): 0.9529 and 0.9384 and 0.8486
relative gene expression of BtOBP1-8 following neophytadiene exposure (BtOBP1-8 genes; continuous release for 96 h, measured every 24 h): Only two genes, BtOBP2 and BtOBP3, increased their expression over time
attraction of whiteflies (whiteflies): highly attractive to whiteflies
preference for neophytadiene of BtOBP2-silenced (dsOBP2) whiteflies ([4]; after RNA interference of BtOBP2, n = 9): no preference
preference for neophytadiene of BtOBP3-silenced (dsOBP3) whiteflies ([4]; after RNA interference of BtOBP3, n = 9): still exhibited preference
preference (whiteflies choosing Neophytadiene) ([4]; dsGFP-treated whiteflies): 95 and 86 and 80 and 93 and 85 and 88 and 79 and 90
preference (whiteflies choosing Neophytadiene), mean ([4]; dsGFP-treated whiteflies): 87.6667
preference (whiteflies choosing Neophytadiene) ([4]; dsOBP2-treated whiteflies): 36 and 41 and 48 and 46 and 42 and 58 and 59 and 45
preference (whiteflies choosing Neophytadiene), mean ([4]; dsOBP2-treated whiteflies): 46.3333

phytol
IC50 (BtOBP2 [1]): 26.1 ± 1.48 µM
Ki (BtOBP2 [1]): 19.5 ± 1.1 µM
Whitefly preference for plant volatiles versus control (solvent only): number of whiteflies in the volatile arm [2]: 58 and 50 and 60 and 24 and 48 and 27 and 44 and 38
impact of volatile on whitefly preference [2]: did not influence whitefly preference

c1ccc(Nc2cccc3ccccc23)cc1 [1‐NPN, N‐Phenyl‐1‐naphthylamine]
Kd (BtOBP2 [5]): 2.94 ± 0.08 µM

C=C1CCC2CC1C2(C)C (stereo not drawn) [β‐pinene]
IC50 (BtOBP2 [1]): 13.7 ± 0.51 µM
Ki (BtOBP2 [1]): 10.2 ± 0.38 µM
Whitefly preference for plant volatiles versus control (solvent only): number of whiteflies in the volatile arm [2]: 12 and 26 and 37 and 29 and 28 and 24 and 10 and 31 and 15
impact of volatile on whitefly preference [2]: significantly repelled whiteflies

C=C1CC/C=C(\C)CC[C@@H]2[C@@H]1CC2(C)C [β‐caryophyllene]
IC50 (BtOBP2 [1]): 14.2 ± 0.72 µM
Ki (BtOBP2 [1]): 10.6 ± 0.54 µM
Whitefly preference for plant volatiles versus control (solvent only): number of whiteflies in the volatile arm [2]: 41 and 20 and 16 and 6 and 19 and 27 and 31 and 10 and 39
impact of volatile on whitefly preference [2]: significantly repelled whiteflies

Cc1ccc(C(C)C)cc1 [ρ‐cymene]
IC50 (BtOBP2 [1]): 16.3 ± 0.49 µM
Ki (BtOBP2 [1]): 12.1 ± 0.36 µM
Whitefly preference for plant volatiles versus control (solvent only): number of whiteflies in the volatile arm [2]: 10 and 20 and 17 and 26 and 18 and 25 and 27 and 23
impact of volatile on whitefly preference [2]: significantly repelled whiteflies
effect on settling of whitefly on an otherwise-preferred tomato cultivar (Trialeurode vaporariorum): repelled

CC12CCC(CC1)C(C)(C)O2 [1, 8‐cineole]
effect on settling of whitefly on an otherwise-preferred tomato cultivar (Trialeurode vaporariorum): repelled

CC/C=C\CCO [(Z)‐3‐hexenol]
effect on tomato defense against infection by whitefly-transmitted TYLCV (TYLCV): improves tomato defense

CC1=CCC2CC1C2(C)C (stereo not drawn) [α‐pinene]
IC50 (BtOBP2 [1]): 14.6 ± 0.57 µM
Ki (BtOBP2 [1]): 10.9 ± 0.43 µM
Whitefly preference for plant volatiles versus control (solvent only): number of whiteflies in the volatile arm [2]: 23 and 24 and 30 and 26 and 17 and 40 and 21 and 6 and 43
impact of volatile on whitefly preference [2]: significantly repelled whiteflies

C=C(C)[C@H]1CC=C(C)CC1 [limonene]
effect on settling of whitefly on an otherwise-preferred tomato cultivar (Trialeurode vaporariorum): repelled

CC1=CC=C(C(C)C)CC1 [α‐terpinene]
IC50 (BtOBP2 [1]): 20.4 ± 1.29 µM
Ki (BtOBP2 [1]): 15.2 ± 0.96 µM
Whitefly preference for plant volatiles versus control (solvent only): number of whiteflies in the volatile arm [2]: 9 and 19 and 28 and 37 and 36 and 43
impact of volatile on whitefly preference [2]: significantly repelled whiteflies

C=C1C=CC(C(C)C)CC1 (stereo not drawn) [β‐phellandrene]
IC50 (BtOBP2 [1]): 25.4 ± 3.39 µM
Ki (BtOBP2 [1]): 19 ± 2.53 µM
Whitefly preference for plant volatiles versus control (solvent only): number of whiteflies in the volatile arm [2]: 34 and 28 and 40 and 32 and 46 and 20 and 36 and 43 and 14
impact of volatile on whitefly preference [2]: significantly repelled whiteflies
